We go through 2 molecules from US20230398116A1, “Agent for reversing resistance to anticancer drugs” (Y'S AC CO., LTD., priority 2020, published 2023).

Assay [1] deals with endoplasmic reticulum stress signaling (DDIT3, ATF3, ATF4) in HCC70 cells. In words: qRT-PCR and immunofluorescence of endoplasmic reticulum stress markers in HCC70 cells. Format: cell-based, human. As to the method: (§1) E0771 and HCC70 cells (1×10^5) were cultured for 24 hours in RPMI1640 medium with 10% FCS on Lab-Tek chamber slides (Thermo Fisher Scientific). The cultured cells were stimulated with Alexa Fluor 488 labeled IL-26 (30 ng/ml) in the presence or absence of recombinant human and mouse EphA3-Ig for 1 hour. HCC70 cells were stimulated with IL-26 (30 ng/ml) in the presence or absence of gefitinib (40 μM), a signal inhibitor, and a neutralizing antibody for 24 hours. Subcutaneous tumor samples obtained from mice were fixed in 4% paraformaldehyde (Thermo Fisher Scientific) and embedded in OCT compound (Tissue-Tek (registered trademark), Sakura Finetek, Japan). Cells and slides were immunostained with each antibody and observed using a Zeiss inverted microscope and Axiovision 2.0 program (Carl Zeiss, Germany). The fluorescence intensity was quantified with Image-J software (NIH). The images were captured using a 100×400× objective.
(§2) E0771 cells, HCC70 cells, and MDA-MB-468 cells were cultured in RPMI1640 medium containing 10% FCS on a 6-well plate (Corning), and then stimulated with IL-26 (30 ng/ml) in the presence or absence of gefitinib for 3, 6, or 12 hours. The cells were harvested and total RNA was extracted. cDNA was synthesized using PrimeScript II first-strand cDNA synthesis kit (TaKaRa Bio, Japan) and oligo (dT) primers. The mRNA levels were measured by 7500 System SDS software (Applied Biosystems, Foster City, CA) and normalized to hypoxanthine phosphoribosyltransferase expression levels.

In assay [2] the test system is E0771 cells. Description: MTT assay / cell proliferation (confluence) assay, E0771. In kind it is cell-based, mouse. On the procedure: (§3) Human and mouse breast cancer cells (1×10^4) were cultured in 10% FCS containing RPMI1640 medium on a 96-well flat bottom plate (Corning, Tewksbury, MA) at 37° C. for 24 hours, and then stimulated with IL-26 for 48 hours in the presence or absence of EGFR-TKI (gefitinib or erlotinib) at various concentrations, a signal inhibitor, and a neutralizing antibody. HUVECs were seeded in a 96-well flat bottom plate at 5×10^3 cells/well in a 2% FBS-containing EGM medium in which growth factors were reduced by half, and cultured at 37° C. for 12 hours. Thereafter, the medium was aspirated, and a recombinant human IL-26 dimer was adjusted to a final concentration of 10 ng/mL in a 2% FBS-containing EGM medium containing no growth factors, and added to the cells. The stimulation was started in the presence or absence of control human IgG and anti-human IL-26 antibodies, and the cells were cultured for 48 hours. Thereafter, a concentration of 20 μl or 1/10 of a 5 mg/ml MTT solution (Tetrazolium monosodium salt, WST-8) was added to each well, and the plate was allowed to stand for 1 hour. The absorbance at 450 nm/595 nm was measured using Microplate Reader (Bio-Rad, Hercules, CA) and data was analyzed with Microplate Manager 6 software (Bio-Rad).
(§4) Human and mouse breast cancer cells (1×10^4) were cultured in RPMI1640 medium containing 10% FCS for 24 hours at 37° C. on a 96-well flat bottom plate (Corning), and then stimulated with IL-26 (30 ng/ml) in the presence or absence of various concentrations of gefitinib and a neutralizing antibody. Cell proliferation was measured as cell confluence using IncuCyte ZOOM (Essen Bioscience, Ann Arbor, MI).

Assay [3] deals with HCC70 cells. Description: JC-1 staining (mitochondrial membrane potential) of HCC70 cells. In kind it is cell-based, human. As to conditions: HCC70, gefitinib 40 μM, 24 hours, FIG. 31. On the procedure: Mitochondrial stability was evaluated using the mitochondrial membrane potential (ΔΨm) assay kit (Cayman Chemical, Ann Arbor, MI, USA) utilizing JC-1 staining. HCC70 cells (1×10^4 cells) were stimulated with IL-26 (30 ng/ml) in the presence or absence of gefitinib (40 μM), a signal inhibitor, and a neutralizing antibody in 96-well flat bottom plate (Corning) for 24 hours. […] Stained cells were quantified using Image-J software (NIH). Images were captured using a 40× objective.

Assay [4] relates to endoplasmic reticulum stress signaling in E0771 cells. Description: qRT-PCR of endoplasmic reticulum stress markers in E0771 cells. The conditions noted are these: E0771, gefitinib 20 μM, 6 hours. Format: cell-based, mouse. As to the method:
as §2

Assay [5] deals with MDA-MB468 cells. Description: MTT assay / cell proliferation (confluence) assay, MDA-MB468. Format: cell-based, human. The conditions noted are these: MDA-MB468, 48 hours, FIGS. 4A, 4B. On the procedure: as §3, §4
The test system of assay [6] is HCC70 cells. In words: MTT assay / cell proliferation (confluence) assay, HCC70. In kind it is cell-based, human. On the procedure:
as §3, §4

The subject of assay [7] is endoplasmic reticulum stress signaling in MDA-MB-468 cells. Description: qRT-PCR of endoplasmic reticulum stress markers in MDA-MB-468 cells. Format: cell-based, human. As to conditions: MDA-MB-468, gefitinib 20 μM, 6 hours. On the procedure: as §2
Assay [8] has as its system T47D cells. Description: MTT assay / cell proliferation (confluence) assay, T47D. The conditions noted are these: 48 hours, FIGS. 4C, 4D. Format: cell-based, human. On the procedure: as §3, with “The stimulation was started in the presence or absence of control human IgG and anti-human IL-26 antibodies, and the cells were cultured for 48 hours. Thereafter, a concentration of 20 μl or 1/10 of a 5 mg/ml MTT solution (Tetrazolium monosodium salt, WST-8) was added to each well, and the plate was allowed to stand for 1 hour.” left out
as §4

For assay [9], the target named is T1, interaction between IL-26 and EphA3 (Homo sapiens, UniProt Q9NPH9).
T1 construct: purchased R&D Systems; host or cells: IL-26 was purchased; EphA3 is endogenous on HCC70 cells
T1 sequence (Q9NPH9 22-171): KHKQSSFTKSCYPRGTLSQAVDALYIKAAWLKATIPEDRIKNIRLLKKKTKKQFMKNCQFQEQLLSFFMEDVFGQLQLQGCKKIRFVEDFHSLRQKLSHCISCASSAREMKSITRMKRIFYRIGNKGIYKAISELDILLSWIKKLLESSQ
Description: Immunofluorescence of rhIL-26-Alexa488 and cell surface EphA3 on HCC70 cells. In kind it is cell-based. As to conditions: HCC70, rhIL-26-Alexa488 30 ng/ml, 50 μg/ml each, 1 hour, FIG. 21. As to the method:
as §1

Assay [10] concerns the target T2, EphA3/IL-26 interaction (Homo sapiens, UniProt Q9NPH9).
T2 construct: purchased R&D Systems; host or cells: IL-26 was purchased; EphA3 is endogenous on E0771 cells
T2 sequence (Q9NPH9 22-171): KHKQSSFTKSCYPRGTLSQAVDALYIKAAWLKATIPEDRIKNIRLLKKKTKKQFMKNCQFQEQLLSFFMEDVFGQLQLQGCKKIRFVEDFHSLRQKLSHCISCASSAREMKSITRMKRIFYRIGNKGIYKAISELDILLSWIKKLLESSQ
In words: Immunofluorescence of rhIL-26-Alexa 488 and cell surface EphA3 on E0771 cells. In kind it is cell-based, mouse. The conditions noted are these: E0771, antibodies 10 μg/ml, FIGS. 19 and 20. On the procedure: as §1

For the molecule `COc1cc2ncnc(Nc3ccc(F)c(Cl)c3)c2cc1OCCCN1CCOCC1` [gefitinib, Gefitinib, reference compound], the “mRNA expression levels of IL-6, IL-8 and CXCL2, gefitinib treatment” value in [1] (HCC70, gefitinib 40 μM, 6 hours, FIG. 34) is given as “significantly increased”; in assay [7] (FIG. 34) it was “significantly increased”. Besides, the “expression of DDIT3 at the protein level, gefitinib treatment” value in assay [1] (HCC70, gefitinib 40 μM, 24 hours, immunocytochemical staining, FIG. 30) was “marked increase”. Besides, the “mRNA expression levels of DDIT3, ATF3 and ATF4, gefitinib treatment” value in [1] (HCC70, gefitinib 40 μM, FIG. 28) is recorded as “significantly increased”; in assay [4] (FIG. 29), “significantly increased”; in assay [7] (FIG. 29) it was “significantly increased”. In addition, the “cell proliferation under gefitinib treatment” value in assay [2] (E0771, 48 hours, FIGS. 2A to 2C) is “suppressed”; in assay [6] (HCC70, 48 hours, FIGS. 3A to 3C) it was “suppressed”. Moreover, in assay [3], the “mitochondrial activity, gefitinib treatment” value was “significantly reduced mitochondrial activity”. Also, the “mRNA expression levels of endoplasmic reticulum stress-related cytokines/chemokines, gefitinib treatment” value in [4] (FIG. 34) is on record as “significantly increased”. For the same molecule, the “cell proliferation under gefitinib” value in assay [5] and in assay [8] was “suppression of cell proliferation” each time.

B1: 69-10: mouse anti-human IL-26 monoclonal antibody, clone 69-10, from deposited hybridoma (antibody, V domains shown)
VH: QVTLKESGPGILKPSQTLSLTCSFSGFSLSTSGMGVGWIRQPSGKGLEWLAHIWWDDDKYYNPSLKSQLTISKDTSRNQVFLKITSVDTADTATYYCVRGGITATHYYAMDYWGQGTSVTVSS
VL: DIQMTQSPASQSASLGESVTISCLASQTIGTWLSWYQQKPGKSPQLLIYAATSLADGVPSRFSGSGSGTKFSFKISSLQAEDFVSYYCQQLYSSPWTFGGGTKLEIK
For the molecule B1, in assay [1] (HCC70, 24 hours, antibodies 50 μg/ml, FIG. 32 lower), the “inhibition of the decrease in expression of DDIT3 at the protein level by IL-26 together with gefitinib” value is reported as “significantly inhibited”. In addition, the “inhibitory effect compared with anti-EphA3 pAb” value in assay [1] (HCC70 cells treated with gefitinib and IL-26) is “stronger than that of anti-EphA315 pAb”. Also, the “reversal of effect of IL-26 on gefitinib-induced DDIT3 expression and mitochondrial membrane depolarization” value in assay [1] (HCC70 cells treated with gefitinib and IL-26, FIGS. 32 and 33) is listed as “reversed the effect of IL-26”. In addition, in assay [2] (E0771, IL-26 30 ng/ml, gefitinib 20 μM, antibody 20 μg/ml, 48 hours, FIG. 5D), the “reversal of inhibitory effect of IL-26 on gefitinib-induced suppression of cell proliferation (MTT)” value is “reversed the inhibitory effect of IL-26 on gefitinib-induced suppression of cell proliferation”. Besides, the “reversal of effect of IL-26 on gefitinib-induced suppression of cell proliferation (percent confluence)” value in assay [2] (E0771, gefitinib 15 μM and IL-26, antibody 10 μg/ml (mixture 2.5 μg/ml each), FIG. 11) is “reversed the effect of IL-26 on gefitinib-induced suppression of cell proliferation”. Moreover, in [9], the “inhibition of interaction between IL-26 and EphA3” value is “clearly inhibited the interaction between IL-26 and EphA3”. Also, in assay [10], the “inhibition of colocalization of IL-26 with EphA3 (EphA3/IL-26 interaction)” value was “significantly inhibited”. Besides, the “reversal of inhibitory effect of IL-26 on gefitinib-induced suppression of cell proliferation” value in assay [6] (HCC70, IL-26 30 ng/ml, gefitinib 40 μM, 48 hours, MTT, FIG. 59) is given as “reversed the inhibitory effect of IL-26 on gefitinib-induced suppression of cell proliferation in an antibody dose-dependent manner”.
